We go through one compound from paper PMC9929129, “Towards Translation of PqsR Inverse Agonists: From In Vitro Efficacy Optimization to In Vivo Proof‐of‐Principle” (Advanced Science, 2023).

The target in data set [1] is T1, hKv1.5 potassium channels (Homo sapiens, UniProt P22460).
T1 construct: host or cells: CHO cells
Briefly: Ion channel profiling at Charles River: hKv1.5. The class given is cell-based. How it is done:
(§1) 1.4.3 Ion Channel Profiling at Charles River
(§2) Table S9. Compound 24 was tested against the following ion channels at Charles River Laboratories. […]
FASTPatch Assay IK (KCa3.1) calcium-activated potassium channel (human KCNN4 >30 gene) expressed in CHO cells
Cloned hKv1.5 potassium channels (encoded by the human 32.6
KCNA5 gene, expressed in CHO cells) […]
(§3) FLIPR Assay expressed in HEK293 cells
(§4) GABAA α5/β3/γ2 ionotropic receptor (human GABRA5, GABRB3, >30 and GABRG2 genes, expressed in HEK293 cells

Data set [2] in a line: Plasma protein binding, human (equilibrium dialysis). The class given is in vitro ADME. How it is done:
(§5) 1.4.4 Pharmacokinetic and off-target functional assays (Cyprotex)
(§6) Compound 24 was assayed at Cyprotex in functional assays for interference with important off-targets as well as important pharmacokinetic parameters. With the exception of plasma protein binding, a dose-response relationship was studied in order to calculate IC50 values.
(§7) Table S10. Information on in vitro ADMET assays performed at Cyprotex. […]
Plasma protein binding assay (human and Equilibrium dialysis […]
(§8) An increase in the number of colonies of at least two-fold over baseline (mean + SD of the vehicle control) and a dose response indicate a positive response. An […]
(§9) different from the vehicle control.
(§10) Where indicated, S9 fraction from the livers of Aroclor 1254-treated rats were included in the incubation at a final concentration of 4.5%. A NADPH-regenerating system was also included to ensure a steady supply of reducing equivalents.
In general terms: Equilibrium dialysis compares concentrations on both sides of a semipermeable membrane.

Data set [3] has as its system P. aeruginosa PAO1. The data set can be described thus: Biofilm-eradication assay with amikacin. It counts as cell-based, Pseudomonas aeruginosa. The following applies: 10 × 10^−6 M 24 plus 4 µg/mL amikacin. How it is done: compound, 150 µL 1% DMSO in LB. The inoculator was wrapped with parafilm again and incubated for another 24 h. After that, the peg lid was transferred for 1 min to a 96-well plate containing 200 µL sterile MΩ in each well, followed by another 96 well plate containing 200 µL LB in each well. The system was sealed with parafilm and sonicated for 15 min in an ultrasonic bath with tray.
Immediately after sonication, 20 µL were removed from each well using a multi-channel pipette and diluted 1:10 (stepwise, until 10-6). After each dilution step, 10 µL were directly transferred to cetrimide agar plates (spot plating) using fresh pipette tips. Agar plates were incubated for 16 h at 37 °C and then used for cell counting. Statistical analysis was performed with GraphPad Prism 8.4.1 (GraphPad Software, San Diego, CA) using one-way ANOVA with Tukey’s multiple comparisons test.
Statistical outliers were determined using the Nalimov test, applying a 95% cut-off.
1.2.5 Biofilm-eradication assay
The assay was carried out as described in section 1.2.4, with the following modifications: In the first incubation step only QSI or DMSO (DMSO control and tobramycin control) were added to the wells at time 0. The well plate used for the second incubation step contained QSI/DMSO as before, in presence/absence of tobramycin/amikacin. […]

Data set [4] deals with T2, CYP2D6 (Homo sapiens, UniProt P10635).
T2 construct: Cyprotex
Briefly: Cytochrome P450 inhibition assay, CYP2D6. The class given is in vitro ADME. The following applies: Metabolic activity. How it is done:
as §5, §6, §7, §8, §9, §10

The subject of data set [5] is Ca2+ channel (L, dihydropyridine site). The data set can be described thus: Cerep panel binding assay. Also on record: species or system rat. The following applies: 10 µM, antagonist radioligand. How it is done: (§11) 1.4 Safety Pharmacology of Compound 24
(§12) 1.4.1 Cerep panel (Eurofins)
(§13) Compound 24 was further profiled for its off-target interactions against a panel of 44 targets. The
(§14) screening was done by Eurofins Pharma Discovery within the SafetyScreen44 Panel (Cerep, ITEM
(§15) P270). In all assays binding/functional inhibition was determined at 10 µM.
Table S6. List of binding assays within the CEREP44 off-target panel and binding data for compound

In data set [6] the target is T3, V1a (h) (Homo sapiens, UniProt P37288).
T3 construct: purchased Eurofins Pharma Discovery (Cerep) SafetyScreen44 Panel, ITEM P270
Briefly: Cerep panel binding assay. The following applies: agonist radioligand. How it is done: as §11, §12, §13, §14, §15
Table S6. […]
V1a (h) (agonist radioligand) 7.6

In data set [7] the target is T4, Kv1.3 potassium channel (Homo sapiens, UniProt P22001).
T4 construct: host or cells: CHO cells
The data set can be described thus: Ion channel profiling at Charles River: Kv1.3. The following applies: expressed in CHO cells; read-out: ESTIMATED IC50. The class given is cell-based. How it is done:
as §1
Table S9. Compound 24 was tested against the following ion channels at Charles River Laboratories.
ASSAY TYPE ION CHANNEL AND EXPRESSION SYSTEM ESTIMATED […]
ScreenPatch Assay Kv1.3 potassium channel (human KCNA3 gene) expressed in CHO […]
as §3
GABAA α5/β3/γ2 ionotropic receptor (human GABRA5, GABRB3, >30
and GABRG2 genes, expressed in HEK293 cells

Data set [8] concerns the target T5, TRPV1 channel (Homo sapiens, UniProt Q8NER1).
T5 construct: host or cells: HEK293 cells
The data set can be described thus: Ion channel profiling at Charles River: TRPV1. The following applies: expressed in HEK293 cells; read-out: ESTIMATED IC50. The class given is cell-based. How it is done: as §1, §2, §3
GABAA α5/β3/γ2 ionotropic receptor (human GABRA5, GABRB3, >30 and GABRG2 genes, expressed in HEK293 cells […]
TRPV1 channel (human TRPV1 gene) expressed in HEK293 cells >30 […]
as §8, §9, §10

Data set [9] is described as follows: SafetyScreen44 (Eurofins), whole panel. The note with it: at 10 × 10^−6 M. How it is done:
as §11, §12
Compound 24 was further profiled for its off-target interactions against a panel of 44 targets. The screening was done by Eurofins Pharma Discovery within the SafetyScreen44 Panel (Cerep, ITEM P270). In all assays binding/functional inhibition was determined at 10 µM.
Table S6. List of binding assays within the CEREP44 off-target panel and binding data for compound […]
Ca2+ channel (L, dihydropyridine site) (antagonist radioligand) 75.3
Norepinephrine transporter (h) (antagonist radioligand) 74.7
Potassium Channel hERG (human) [3H] Dofetilide 73.1 […]
5-HT transporter (h) (antagonist radioligand) 49.8 […]
MAO-A (antagonist radioligand) 24.9 kappa (h) (KOP) (agonist radioligand) 23.6 dopamine transporter (h) (antagonist radioligand) 22.7 […]
KV channel (antagonist radioligand) 14.2 […]
5-HT1A (h) (agonist radioligand) 11.3 alpha2A (h) (antagonist radioligand) 8.4 […]

The target in data set [10] is T6, IK (KCa3.1) calcium-activated potassium channel (Homo sapiens, UniProt O15554).
T6 construct: host or cells: CHO cells
Briefly: Ion channel profiling at Charles River: IK. The following applies: expressed in CHO cells; read-out: ESTIMATED IC50. It counts as cell-based. How it is done: as §1, §2
FASTPatch Assay IK (KCa3.1) calcium-activated potassium channel (human KCNN4 >30 gene) expressed in CHO cells […]
as §3, §4

Data set [11] deals with T7, CYP3A4 (Homo sapiens, UniProt P08684).
T7 construct: Cyprotex
The data set can be described thus: Cytochrome P450 inhibition assay, CYP3A4. It counts as in vitro ADME. How it is done:
as §5, §6, §7, §8, §9, §10

Data set [12] can be described thus: Metabolic stability in mouse liver S9 fractions. It counts as in vitro ADME. The following applies: liver S9 fraction, read-out: Mouse liver S9 t½.

“And” between values parts separate entries of the source, which are not always exact repeats. Equal entries are not always repeated. “Also recorded” adds a separate entry of the source. Where two headings read alike, the source gives them in different places.

T1 sequence (P22460 whole entry): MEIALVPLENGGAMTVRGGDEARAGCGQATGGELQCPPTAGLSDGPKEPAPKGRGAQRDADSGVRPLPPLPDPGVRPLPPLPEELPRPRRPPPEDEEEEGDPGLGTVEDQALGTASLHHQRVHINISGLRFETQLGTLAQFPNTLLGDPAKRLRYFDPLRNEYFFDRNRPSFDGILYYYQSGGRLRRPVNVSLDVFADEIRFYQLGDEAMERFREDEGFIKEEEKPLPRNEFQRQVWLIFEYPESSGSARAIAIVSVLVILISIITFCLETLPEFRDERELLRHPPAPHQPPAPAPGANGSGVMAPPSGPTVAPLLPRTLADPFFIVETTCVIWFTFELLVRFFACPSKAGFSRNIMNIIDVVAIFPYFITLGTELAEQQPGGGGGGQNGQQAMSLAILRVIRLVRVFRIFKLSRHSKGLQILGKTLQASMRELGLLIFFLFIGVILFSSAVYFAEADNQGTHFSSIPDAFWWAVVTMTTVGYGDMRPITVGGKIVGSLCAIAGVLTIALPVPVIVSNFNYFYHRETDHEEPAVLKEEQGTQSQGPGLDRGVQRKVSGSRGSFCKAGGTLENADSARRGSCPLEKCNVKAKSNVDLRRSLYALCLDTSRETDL
T7 sequence (P08684 whole entry): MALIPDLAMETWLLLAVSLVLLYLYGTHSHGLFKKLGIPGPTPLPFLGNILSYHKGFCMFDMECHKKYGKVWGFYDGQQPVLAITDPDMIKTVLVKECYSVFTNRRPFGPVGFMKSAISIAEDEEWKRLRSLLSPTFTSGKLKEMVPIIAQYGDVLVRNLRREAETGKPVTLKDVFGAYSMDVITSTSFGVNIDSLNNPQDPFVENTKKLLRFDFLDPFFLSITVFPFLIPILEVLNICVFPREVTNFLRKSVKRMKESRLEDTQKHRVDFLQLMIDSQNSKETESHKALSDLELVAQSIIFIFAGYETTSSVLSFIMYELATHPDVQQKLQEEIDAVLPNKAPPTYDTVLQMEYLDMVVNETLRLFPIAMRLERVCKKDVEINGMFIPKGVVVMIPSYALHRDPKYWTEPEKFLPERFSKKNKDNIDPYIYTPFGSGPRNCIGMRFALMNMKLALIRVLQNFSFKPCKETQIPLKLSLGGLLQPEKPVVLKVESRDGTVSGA
T2 sequence (P10635 whole entry): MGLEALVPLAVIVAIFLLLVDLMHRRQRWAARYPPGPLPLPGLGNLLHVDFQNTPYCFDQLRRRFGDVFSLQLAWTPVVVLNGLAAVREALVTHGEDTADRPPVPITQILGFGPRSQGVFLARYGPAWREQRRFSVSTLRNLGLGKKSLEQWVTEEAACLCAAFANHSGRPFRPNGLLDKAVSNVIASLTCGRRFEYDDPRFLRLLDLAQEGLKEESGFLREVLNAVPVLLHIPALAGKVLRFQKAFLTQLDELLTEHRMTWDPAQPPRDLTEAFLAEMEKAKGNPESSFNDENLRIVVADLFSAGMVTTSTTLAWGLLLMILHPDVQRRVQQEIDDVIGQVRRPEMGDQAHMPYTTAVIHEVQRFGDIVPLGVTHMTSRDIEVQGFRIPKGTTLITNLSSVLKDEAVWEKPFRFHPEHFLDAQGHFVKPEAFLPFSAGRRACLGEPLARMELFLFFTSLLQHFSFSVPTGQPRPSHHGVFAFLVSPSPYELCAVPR
T5 sequence (Q8NER1 whole entry): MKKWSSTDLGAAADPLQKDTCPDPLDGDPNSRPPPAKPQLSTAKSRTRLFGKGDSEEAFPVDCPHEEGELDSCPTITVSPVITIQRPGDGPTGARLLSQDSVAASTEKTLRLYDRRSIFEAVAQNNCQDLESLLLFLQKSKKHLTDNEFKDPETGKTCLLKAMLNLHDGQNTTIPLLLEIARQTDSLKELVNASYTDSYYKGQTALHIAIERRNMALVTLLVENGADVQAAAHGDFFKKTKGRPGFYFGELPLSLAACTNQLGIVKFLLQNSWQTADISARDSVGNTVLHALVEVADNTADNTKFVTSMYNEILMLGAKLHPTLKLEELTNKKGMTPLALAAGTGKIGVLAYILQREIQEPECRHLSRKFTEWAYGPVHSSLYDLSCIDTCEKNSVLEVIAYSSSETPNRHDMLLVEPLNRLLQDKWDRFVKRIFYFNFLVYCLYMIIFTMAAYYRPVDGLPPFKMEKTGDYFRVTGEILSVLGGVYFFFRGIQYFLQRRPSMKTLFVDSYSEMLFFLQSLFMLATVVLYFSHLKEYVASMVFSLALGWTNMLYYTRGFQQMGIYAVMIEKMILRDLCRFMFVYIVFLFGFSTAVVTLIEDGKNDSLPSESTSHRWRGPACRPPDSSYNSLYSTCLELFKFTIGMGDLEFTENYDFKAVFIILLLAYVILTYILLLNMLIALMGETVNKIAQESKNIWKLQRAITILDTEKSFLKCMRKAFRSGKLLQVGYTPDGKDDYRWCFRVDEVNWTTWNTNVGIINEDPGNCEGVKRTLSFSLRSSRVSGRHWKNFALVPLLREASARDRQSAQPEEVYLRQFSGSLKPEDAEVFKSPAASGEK
T3 sequence (P37288 whole entry): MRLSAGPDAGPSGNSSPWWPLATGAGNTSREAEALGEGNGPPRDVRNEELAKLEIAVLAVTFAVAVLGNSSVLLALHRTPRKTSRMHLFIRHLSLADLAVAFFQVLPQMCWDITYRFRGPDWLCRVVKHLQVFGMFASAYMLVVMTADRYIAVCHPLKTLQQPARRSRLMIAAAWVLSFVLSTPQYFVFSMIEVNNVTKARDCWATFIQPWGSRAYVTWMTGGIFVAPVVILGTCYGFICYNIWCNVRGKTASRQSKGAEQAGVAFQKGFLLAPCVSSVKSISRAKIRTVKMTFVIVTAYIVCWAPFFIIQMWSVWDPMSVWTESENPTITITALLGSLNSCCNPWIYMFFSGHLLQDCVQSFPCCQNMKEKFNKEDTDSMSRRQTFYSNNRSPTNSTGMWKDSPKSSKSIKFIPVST
T4 sequence (P22001 whole entry): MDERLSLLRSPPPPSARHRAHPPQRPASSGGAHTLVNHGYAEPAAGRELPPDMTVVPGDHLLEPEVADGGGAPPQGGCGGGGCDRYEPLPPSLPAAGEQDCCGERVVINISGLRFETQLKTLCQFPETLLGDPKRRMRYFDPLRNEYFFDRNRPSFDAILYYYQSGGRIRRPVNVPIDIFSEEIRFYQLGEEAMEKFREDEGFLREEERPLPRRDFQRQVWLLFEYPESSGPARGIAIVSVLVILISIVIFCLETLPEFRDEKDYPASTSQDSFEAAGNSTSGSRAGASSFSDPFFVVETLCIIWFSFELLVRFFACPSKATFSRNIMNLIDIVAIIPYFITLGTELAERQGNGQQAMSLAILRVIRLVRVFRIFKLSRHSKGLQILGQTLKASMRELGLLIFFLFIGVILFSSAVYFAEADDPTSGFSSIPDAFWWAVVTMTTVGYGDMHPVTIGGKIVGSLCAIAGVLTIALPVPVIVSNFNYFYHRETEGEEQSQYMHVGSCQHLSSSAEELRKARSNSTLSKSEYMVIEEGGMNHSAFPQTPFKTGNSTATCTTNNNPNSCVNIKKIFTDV

As for `CC(C)Oc1ccc(-c2ncc(CNc3ccnc(C(F)(F)F)c3)cn2)cc1Cl` [Compound 24], the IC50 in data set [1] (expressed in CHO cells, read-out: ESTIMATED IC50) was 32.6 µM; in data set [1] (read-out: hKv1.5 functional inhibition IC50) it was approximately 30 µM; in [4], more than 25 µM; in data set [7] it was more than 30 µM; in data set [8], more than 30 µM; in data set [10], more than 30 µM. The IC50 in [11] (Metabolic activity, activation observed) was more than 25 µM. In [2], the Plasma binding human was more than 99%. Also, in data set [3], the “Effect on amikacin activity against PAO1 biofilm” value is “significant boost in activity; also recorded: boosted”. Besides, in data set [5], the “BINDING (%)” value was 75.3% and > 50%. Moreover, the inhibition at 10 µM in data set [6] is 7.6%. For the same compound, in [9], the “effects on any target of SafetyScreen44” value is not above 80%. Also, in data set [11] (at 10 × 10^−6 M), the CYP3A4 activation is given as more than 50%. The half-life in data set [12] turned out to be 50 min.

By IC50 is commonly meant the concentration needed to halve the response being measured. One may read the inhibition as the drop in the measured response relative to a control, in per cent. Higher therefore signals a response far below the control.
